{
  "source": "paper PMC6381024",
  "about": "“Probing Anti-inflammatory Properties Independent of NF-κB Through Conformational Constraint of Peptide-Based Interleukin-1 Receptor Biased Ligands” (Frontiers in Chemistry, 2019)",
  "key": {"IL-1β": {"system": "IL-1β", "test": "qPCR of IL-1β-induced IL-1β expression in HEK-Blue IL-33/IL-1β cells", "type": "cell-based, human", "parameters": "key to qPCR IL-1β (heatmap grade of inhibition): 0: No effect; No effect 01234 Maximum inhibition/efficacy; No effect 01234 Maximum inhibition/efficacy; No effect 01234 Maximum inhibition/efficacy; 4: Maximum inhibition/efficacy", "conditions": "for qPCR IL-1β (heatmap grade of inhibition): HEK-Blue cells, peptide 10^-6 M or Kineret 1.0 mg/mL 30 min, then IL-1β 100 ng/mL 4 h (legend: overnight); for Suppression of IL-1β transcription: HEK blue cells, 10^-6 M pre-treatment, IL-1β stimulation", "description": "HEK-Blue IL-33/IL-1β cells were purchased from InvivoGen (San Diego, CA) and used at passages under 15. HEK-Blue cells were cultured in DMEM growth medium supplemented with 10% serum, 50 U/mL penicillin, […] streptomycin, […] zeocin, and […] hygromycin. Cells were grown in regular conditions (37°C, 5% CO2). Cells were serum starved overnight and treated with 100 ng/mL IL-1β for 4 h. Cells were pre-incubated for 30 min with peptides 1, 5, or 6 (10^−6M) or Kineret (1.0 mg/mL) prior to the experiments to reach equilibrium (n = 4 each treatment). Cells were harvested and incubated for 5 min in RIBOzol (AMRESCO). RNA was extracted according to manufacturer's protocol and RNA concentration and integrity were measured with a NanoDrop 1,000 spectrophotometer. A total of 500 ng RNA was used to synthetize cDNA using iScript Reverse Transcription SuperMix (Bio-Rad, Hercules, CA). Quantitative gene expression analysis was performed on Stratagene MXPro3000 (Stratagene) with SYBR Green Master Mix (Bio-Rad). Gene expression levels were normalized to 18S universal primer (Ambion Life Technology, Burlington ON, Canada). Genes analyzed include IL1β, IL6, and PTGHS2 [Prostaglandin H synthetase 2 or cyclooxygenase-2 (COX-2)]. Data are representative of 3 experiments (each with n = 4 per treatment group).\nFigure 8 The effects of peptides 1, 5, and 6 on the expression of pro-inflammatory genes. HEK-Blue cells were pre-treated with peptides 1, 5, and 6 as above and stimulated with IL-1β overnight. qPCR was performed on cell lysates using 18S rRNA as internal control. Graphs are sorted in columns by gene of interest (COX-2, IL-1β, or IL-6) and rows by peptide configuration [(3R) or (3S)]. Results are representative of an average of 3 independent experiments (each with n = 4 per treatment group) and are expressed as a fold-change of the non-stimulated control: ^*p < 0.05, ^**p < 0.01, ^***p < 0.001, ^****p < 0.0001 compared to group treated only with IL-1β. Treatment groups that are not labeled with asterisks are statistically non-significant compared to group treated only with IL-1β."}, "Sprague Dawley rat pups": {"system": "Sprague Dawley rat pups", "test": "Oxygen-induced retinopathy (OIR), retinal vaso-obliteration in rat pups", "type": "in vivo", "parameters": "key to In vivo OIR (heatmap grade of efficacy): 0: No effect; No effect 01234 Maximum inhibition/efficacy; No effect 01234 Maximum inhibition/efficacy; No effect 01234 Maximum inhibition/efficacy; 4: Maximum inhibition/efficacy", "conditions": "for In vivo OIR (heatmap grade of efficacy): Sprague Dawley rat pups, 80% O2 P5-P10, Kineret 3 mg/kg/day (legend: 15 mg/kg/day), twice-daily i.p.; for In vivo OIR (heatmap grade of efficacy) / Extent of vaso-obliteration (area as percentage of total retinal area) after treatment: peptides 2 mg/kg/day; for Extent of vaso-obliteration (area as percentage of total retinal area) after treatment / Efficacy against vaso-obliteration in the OIR model: rat pups, 80% oxygen days 5 to 10; for Extent of vaso-obliteration (area as percentage of total retinal area) after treatment: Kineret 3 mg/kg/day (legend: 15 mg/kg/day) i.p., untreated ~35%; for Efficacy against vaso-obliteration in the OIR model: 2 mg/kg/day i.p.", "source_text": "On P5, litters were transferred to a controlled hyperoxic environment (Biospherix OxyCycler A84XOV) and maintained at 80 ± 1% O2, which is used to induce vaso-obliteration of the retinal vasculature. At this timepoint, the vasculature is immature and particularly susceptible to […] insults resulting in vaso-obliteration, a defining characteristic of the early stage of retinopathies in premature infants (Garner and Ashton, [1971]). Control litters were not exposed to hyperoxia and were kept in standard conditions with room air (21% O2). To control for the effects of hyperoxia on the lactation of the dams, dams of hyperoxic litters were switched with dams of control litters on P8.\nIn litters exposed to hyperoxia, pups were randomized to receive phosphate-buffered saline (PBS) vehicle, 2 mg/kg/day of peptides 1, 5, or 6 or 3 mg/kg/day of Kineret from P5 to P10. These doses were determined from our previous study (Rivera et al., [2013]) and administered in twice-daily intra-peritoneal injections titrated to 20 μL per injection with 28-gauge insulin syringes. A total of 6–8 pups were used for each treatment group.\nOn P10, pups were euthanized by decapitation under 2% isoflurane anesthesia. Eyes were enucleated and fixed in 4% paraformaldehyde for 1 h at room temperature before washing twice with PBS and storage at 4°C in PBS until further processing.\nUnder a dissecting microscope, the cornea and lens were gently removed from the eyes and remnants of the hyaloid vasculature were removed from the retinas using surgical scissors and tweezers. The retinas were gently removed from the underlying sclera/choroid complex.\nRetinas were treated at room temperature for 1 h with a blocking solution consisting of 1% bovine serum albumin (BSA), 1% normal goat serum, 0.1% Triton X-100 and 0.05% Tween-20 in PBS. The retinas were then double-labeled overnight at 4°C with gentle shaking in an antibody solution consisting of 1 mM CaCl2, 1% Triton X-100, 1% TRITC-conjugated lectin cell endothelial marker from Bandeiraea simplicifolia (Sigma-Aldrich, St Louis, MO) and a 1:500 dilution of rabbit anti-ionized calcium-binding adapter molecule (Iba)-1 antibody (Wako Chemicals USA) in PBS. The retinas were then washed thrice with PBS and incubated with a secondary antibody solution consisting of 1% BSA, 0.1% Triton X-100, 0.05% Tween-20 and 1:500 Alexa-594-conjugated donkey anti-rabbit IgG (ThermoFisher Scientific, Rockford, IL) in PBS for 2 h at room temperature. Retinas were washed thrice with PBS and then flat-mounted onto glass slides with coverslips and Fluoro-Gel mounting medium (Electron Microscopy Sciences, Hatfield, PA).\nFor assessment of vaso-obliteration, retinas were imaged using an epifluorescence microscope at 10X magnification (Zeiss AxioImager Z2) and version 4.8 of the AxioVision software. Images were captured and stitched together using the software's MosaiX feature. Iba-1 staining was assessed with the same microscope at 20X magnification, and a total of 4 fields per retina were imaged halfway between the optic nerve and the edge of the retina.\nThe FIJI software was used to the quantify the area of vaso-obliteration in each retina, expressed as a percentage of the area of the whole retina. The number of Iba-1-positive cells was counted using the cell counter plug-in in FIJI, and the average of cell counts in 4 fields per retina was calculated.\nFigure 10 The preventive effects of peptides 1, 5, and 6 against vaso-obliteration in an OIR model. Five-days old Sprague Dawley pups and their mothers were kept in 80% oxygen until the 10 day of life, receiving twice-daily intraperitoneal injections of peptides 1, 5, and 6 (2 mg/kg/day), Kineret (15 mg/kg/day) or PBS vehicle (each injection was titrated to a volume of 20 μL). (A) Representative retinal flatmounts stained with FITC-conjugated Bandeiraea simplicifolia lectin, taken at 10X magnification and stitched with MosaiX in Axiovision 4.8. […]"}},
  "data": [
    {"substance": "H-D-Arg-D-Tyr-(3R,4R)-Hgl-(S)-Val-D-Glu-D-Leu-D-Ala-NH2 [[(3R,4R)-Hgl^3-(S)-Val^4]-1]", "values": [
      {"measurement": "qPCR IL-1β (heatmap grade of inhibition)", "setting": "IL-1β", "value": 3}
    ]},
    {"substance": "H-D-Arg-D-Tyr-(3R,4R)-Hgl-D-Val-D-Glu-D-Leu-D-Ala-NH2 [[(3R,4R)-Hgl^3]-1]", "values": [
      {"measurement": "qPCR IL-1β (heatmap grade of inhibition)", "setting": "IL-1β", "value": 4}
    ]},
    {"substance": "H-D-Arg-D-Tyr-(3R,4S)-Hgl-(S)-Val-D-Glu-D-Leu-D-Ala-NH2 [[(3R,4S)-Hgl^3-(S)-Val^4]-1]", "values": [
      {"measurement": "qPCR IL-1β (heatmap grade of inhibition)", "setting": "IL-1β", "value": 4}
    ]},
    {"substance": "H-D-Arg-D-Tyr-(3R,4S)-Hgl-D-Val-D-Glu-D-Leu-D-Ala-NH2 [[(3R,4S)-Hgl^3]-1]", "values": [
      {"measurement": "In vivo OIR (heatmap grade of efficacy)", "setting": "Sprague Dawley rat pups", "value": 4},
      {"measurement": "Extent of vaso-obliteration (area as percentage of total retinal area) after treatment", "setting": "Sprague Dawley rat pups", "value": "15–25%"},
      {"measurement": "qPCR IL-1β (heatmap grade of inhibition)", "setting": "IL-1β", "value": 4}
    ]},
    {"substance": "H-D-Arg-D-Tyr-(3S,4R)-Hgl-D-Val-D-Glu-D-Leu-D-Ala-NH2 [[(3S,4R)-Hgl^3]-1]", "values": [
      {"measurement": "In vivo OIR (heatmap grade of efficacy)", "setting": "Sprague Dawley rat pups", "value": 4},
      {"measurement": "Extent of vaso-obliteration (area as percentage of total retinal area) after treatment", "setting": "Sprague Dawley rat pups", "value": "15–25%"},
      {"measurement": "qPCR IL-1β (heatmap grade of inhibition)", "setting": "IL-1β", "value": 4}
    ]},
    {"substance": "H-D-Arg-D-Tyr-(R)-Agl-(S)-Val-D-Glu-D-Leu-D-Ala-NH2 [[(3R)-Agl^3-(S)-Val^4]-1]", "values": [
      {"measurement": "Suppression of IL-1β transcription", "setting": "IL-1β", "value": "ability to suppress the transcription of all three genes was lost"},
      {"measurement": "qPCR IL-1β (heatmap grade of inhibition)", "setting": "IL-1β", "value": 1}
    ]},
    {"substance": "H-D-Arg-D-Tyr-(R)-Agl-D-Val-D-Glu-D-Leu-D-Ala-NH2 [[(3R)-Agl^3]-1]", "values": [
      {"measurement": "In vivo OIR (heatmap grade of efficacy)", "setting": "Sprague Dawley rat pups", "value": 0},
      {"measurement": "Efficacy against vaso-obliteration in the OIR model", "setting": "Sprague Dawley rat pups", "value": "inactivity"},
      {"measurement": "qPCR IL-1β (heatmap grade of inhibition)", "setting": "IL-1β", "value": 4}
    ]},
    {"substance": "H-D-Arg-D-Tyr-(S)-Agl-(S)-Val-D-Glu-D-Leu-D-Ala-NH2 [[(3S)-Agl^3-(S)-Val^4]-1]", "values": [
      {"measurement": "Suppression of IL-1β transcription", "setting": "IL-1β", "value": "ability to suppress the transcription of all three genes was lost"},
      {"measurement": "qPCR IL-1β (heatmap grade of inhibition)", "setting": "IL-1β", "value": 1}
    ]},
    {"substance": "H-D-Arg-D-Tyr-(S)-Agl-D-Val-D-Glu-D-Leu-D-Ala-NH2 [[(3S)-Agl^3]-1]", "values": [
      {"measurement": "In vivo OIR (heatmap grade of efficacy)", "setting": "Sprague Dawley rat pups", "value": 1},
      {"measurement": "Efficacy against vaso-obliteration in the OIR model", "setting": "Sprague Dawley rat pups", "value": "inactivity"},
      {"measurement": "qPCR IL-1β (heatmap grade of inhibition)", "setting": "IL-1β", "value": 4}
    ]},
    {"substance": "H-D-Arg-D-Tyr-D-Thr-D-Val-D-Glu-D-Leu-D-Ala-NH2 [Peptide 1]", "values": [
      {"measurement": "In vivo OIR (heatmap grade of efficacy)", "setting": "Sprague Dawley rat pups", "value": 4},
      {"measurement": "Extent of vaso-obliteration (area as percentage of total retinal area) after treatment", "setting": "Sprague Dawley rat pups", "value": "15–20%"},
      {"measurement": "Suppression of IL-1β transcription", "setting": "IL-1β", "value": "strong suppression of transcription of all three genes"},
      {"measurement": "qPCR IL-1β (heatmap grade of inhibition)", "setting": "IL-1β", "value": 4}
    ]},
    {"substance": "Kineret: FDA-approved recombinant IL-1 receptor antagonist", "values": [
      {"measurement": "In vivo OIR (heatmap grade of efficacy)", "setting": "Sprague Dawley rat pups", "value": 3},
      {"measurement": "Extent of vaso-obliteration (area as percentage of total retinal area) after treatment", "setting": "Sprague Dawley rat pups", "value": "15–20%"},
      {"measurement": "qPCR IL-1β (heatmap grade of inhibition)", "setting": "IL-1β", "value": 4}
    ]}
  ]
}
